Source: US20140221490A1, “METHODS OF TREATING PAIN” (Hospira, Inc., priority 2011, published 2014)

Key:
[1] = Study 2: pharmacokinetics of HPβCD-diclofenac and excipient HPβCD in subjects with renal or hepatic impairment and healthy subjects (crossover vs itraconazole); assay type: in vivo, human; conditions: for AUC(0 − t) / AUC∞ / CL / Vz / t½ / λz: mean ± SD; for Tmax: median; for maximum HPβCD plasma concentration: after administration of Dyloject
Experimental: Subjects with mild chronic hepatic impairment, as defined by Child-Pugh Classification A, Score of 5 to 6 and a bilirubin of ≦2.5 mg/dl, were recruited. Subjects with renal or hepatic impairment were included if they were between 18-75 years of age, and healthy subjects between 18 and 65 years of age.
Inclusion criteria for healthy subjects were similar to those for Study 1. Healthy subjects were required to have normal renal function, defined as CrCl>80 mL/min, and normal hepatic function. […]
Similar to Study 1, there were allowances for a greater breadth of co-morbid conditions in the renal and hepatic groups. […] Diabetic patients must have been on a stable therapeutic regimen for four weeks.
Exclusion criteria included pregnancy, uncontrolled or poorly controlled diabetes, use of dialysis, fluctuating or rapidly deteriorating hepatic function, hepatic or other cancers, organ transplantation or immunosuppression, acute infections, or asthma. Subjects were excluded for any serious cardiovascular events, such as myocardial infarction, coronary artery bypass surgery or percutaneous coronary intervention, unstable angina, stroke or congestive heart failure. Restrictions were also placed on certain disease states, such as current intestinal disorders or infections, peptic ulcers, GI bleeding or cerebral hemorrhage. Subjects who were positive for hepatitis B or hepatitis C were excluded from the healthy and renal groups, but were included in the subjects with mild chronic hepatic impairment. […] Hypersensitivity to NSAIDs or diclofenac also prompted exclusion.
Subjects with renal or hepatic impairment reported to the study site on study day 0 and remained at the site for two nights and two days. […] Subjects were discharged on study day 2 after being assessed by the investigator, and returned 7±3 days after dosing for final safety assessments. If there were no abnormal findings at discharge, the follow-up visit was completed via telephone.
Healthy subjects reported to the study site on study day 0 and remained at the site for three nights and three days. […] Blood samples were obtained as described above for renal and hepatic subjects. […] For itraconazole, one blood sample was to be drawn at each time point to assay for HPβCD concentrations. Subjects were discharged on study day 3 after being assessed by the investigator, and returned 7±3 days after receiving the last dose of study drug for safety assessments.
The LOQ for the HPβCD assay was 100 ng/ml.
Pharmacokinetic parameters were calculated using non-compartmental analysis. Only those plasma concentrations equal to or greater than the lower limit of quantitation were used in the analysis. Actual sampling times were used in all pharmacokinetic analyses.
The maximum serum concentration (Cmax) and time to Cmax (Tmax) were taken directly from the data. The elimination rate constant, λz, was calculated as the negative of the slope of the terminal log-linear segment of the serum concentration-time curve. The range of data used for each subject and treatment was determined by visual inspection of a semi-logarithmic plot of concentration vs. time. Elimination half-life (t½) was calculated according to the following equation;
where Ctf is the final concentration≧: LOQ. Total plasma clearance (CL) was calculated as Dose/AUC, and volume of distribution (Vz) was calculated as Dose/λz AUC.
Comparisons among the three subject types were done using […]. The same model was used to test for the effect of hepatic impairment on the pharmacokinetics of diclofenac and HPβCD but without additional comparisons, as there were only two groups.

[2] = plasma; cited from earlier work
[3] = Study 2, Healthy matches (to hepatic group), 37.5 mg HPβCD-diclofenac IV, plasma HPβCD
[4] = Study 2, Healthy matches (to renal groups), 37.5 mg HPβCD-diclofenac IV, plasma HPβCD
[5] = Study 2, Healthy, plasma HPβCD after 37.5 mg HPβCD-diclofenac IV
[6] = Study 2, Healthy, plasma HPβCD after 200 mg itraconazole IV
[7] = Study 2, Mild Hepatic, 37.5 mg HPβCD-diclofenac IV, plasma HPβCD
[8] = Study 2, Mild Renal, 37.5 mg HPβCD-diclofenac IV, plasma HPβCD
[9] = Study 2, Moderate renal, 37.5 mg HPβCD-diclofenac IV, plasma HPβCD
[10] = moderate renal insufficiency compared to healthy subjects
[11] = subjects with moderate renal insufficiency, 37.5 mg dose of HPβCD-diclofenac

CC(O)COC[C@H]1O[C@@H]2O[C@H]3[C@H](O)[C@@H](O)[C@@H](O[C@H]4[C@H](O)[C@@H](O)[C@@H](O[C@H]5[C@H](O)[C@@H](O)[C@@H](O[C@H]6[C@H](O)[C@@H](O)[C@@H](O[C@H]7[C@H](O)[C@@H](O)[C@@H](O[C@H]8[C@H](O)[C@@H](O)[C@@H](O[C@H]1[C@H](O)[C@H]2O)O[C@@H]8COCC(C)O)O[C@@H]7COCC(C)O)O[C@@H]6COCC(C)O)O[C@@H]5COCC(C)O)O[C@@H]4COCC(C)O)O[C@@H]3COCC(C)O (stereo partly drawn) [HPβCD, hydroxypropyl-beta-cyclodextrin]
PK in subjects with mild hepatic impairment versus matched healthy controls ([1]; 37.5 mg IV): no differences
exposure to HPβCD, geometric least squares mean ratio of AUC∞, relative to 8000 mg as Sporanox ([1]; 333.3 mg HPβCD as HPβCD-diclofenac, healthy subjects): 4.58%
AUC(0 − t) [1, 3]: 52,982 ± 11,267 h × ng/mL
AUC∞ [1, 3]: 53,651 ± 11,321 h × ng/mL
CL [1, 3]: 107 ± 21.2 mL/min
Vz [1, 3]: 20.6 ± 2.45 L
t½ [1, 3]: 2.28 ± 0.42 h
λz [1, 3]: 0.3127 ± 0.052 h⁻¹
Tmax [1, 3]: 0.083 h
AUC(0 − t) [1, 4]: 66,449 ± 12,642 h × ng/mL
AUC∞ [1, 4]: 67,316 ± 12,615 h × ng/mL
CL [1, 4]: 85.2 ± 16.5 mL/min
Vz [1, 4]: 23.3 ± 9.84 L
t½ [1, 4]: 3.29 ± 1.66 h
λz [1, 4]: 0.2510 ± 0.095 h⁻¹
Tmax [1, 4]: 0.083 h
AUC(0 − t) [1, 5]: 58,994 ± 14,123 h × ng/mL
AUC∞ [1, 5]: 59,709 ± 14,217 h × ng/mL
CL [1, 5]: 98.0 ± 22.7 mL/min
Vz [1, 5]: 21.8 ± 7.36 L
t½ [1, 5]: 2.74 ± 1.35 h
λz [1, 5]: 0.2909 ± 0.0860 h⁻¹
Tmax [1, 5]: 0.083 h
CL [1, 6]: 106 ± 19.0 mL/min
Vz [1, 6]: 23.5 ± 5.65 L
t½ [1, 6]: 2.54 ± 0.25 h
λz [1, 6]: 0.2752 ± 0.0244 h⁻¹
Tmax [1, 6]: 1.083 h
AUC(0 − t) [1, 7]: 55,946 ± 17,233 h × ng/mL
AUC∞ [1, 7]: 56,802 ± 17,412 h × ng/mL
CL [1, 7]: 107 ± 33.8 mL/min
Vz [1, 7]: 20.0 ± 4.19 L
t½ [1, 7]: 2.28 ± 0.60 h
λz [1, 7]: 0.3226 ± 0.084 h⁻¹
Tmax [1, 7]: 0.083 h
AUC(0 − t) [1, 8]: 127,141 ± 90,489 h × ng/mL
AUC∞ [1, 8]: 128,349 ± 91,132 h × ng/mL
CL [1, 8]: 59.0 ± 31.3 mL/min
Vz [1, 8]: 13.6 ± 5.38 L
t½ [1, 8]: 2.87 ± 0.69 h
λz [1, 8]: 0.2549 ± 0.068 h⁻¹
Tmax [1, 8]: 0.083 h
AUC(0 − t) [1, 9]: 169,042 ± 52,722 h × ng/mL
AUC∞ [1, 9]: 165,728 ± 60,386 h × ng/mL
CL [1, 9]: 36.2 ± 10.0 mL/min
Vz [1, 9]: 17.7 ± 1.88 L
t½ [1, 9]: 6.04 ± 1.94 h
λz [1, 9]: 0.1226 ± 0.033 h⁻¹
Tmax [1, 9]: 0.083 h
exposure to HPβCD relative to that of itraconazole ([1]; after a single dose): 1/20
maximum HPβCD plasma concentration ([1]; normal healthy subjects): 70 µg/mL
maximum HPβCD plasma concentration ([1]; subjects with moderate renal impairment): 106 µg/mL
exposure to HPβCD relative to that of itraconazole ([1]; after steady state): ⅛
decrease in CL of HPβCD [1, 10]: 2.4 fold
increase in t½ of HPβCD [1, 10]: 1.8 fold
exposure to HPβCD lower than in healthy subjects administered itraconazole, based on AUC(0-T) [1, 11]: 7.9 fold
exposure to HPβCD lower than in healthy subjects administered itraconazole, based on average concentration at steady state (Cav) [1, 11]: 3.9 fold

C[C@]12CC[C@H]3[C@@H](CCC4=CC(=O)CC[C@@]43C)[C@@H]1CC[C@@H]2O [Testosterone]
Prot. bind., drug fraction bound to protein (fP) [2]: 98%
